Experimental data: ChEMBL document CHEMBL4507276 (2021)

Key:
[1] = biological target: Ephrin type-A receptor 5 (Homo sapiens) (UniProt P54756); conditions: Compound concentration 1000.0 nM
[2] = biological target: Serine/threonine-protein kinase N1 (Homo sapiens) (UniProt Q16512); conditions: Compound concentration 1000.0 nM
[3] = biological target: Bone morphogenetic protein receptor type-1B (Homo sapiens) (UniProt O00238); conditions: Compound concentration 1000.0 nM
[4] = biological target: Phosphatidylinositol 3-kinase catalytic subunit type 3 (Homo sapiens) (UniProt Q8NEB9); conditions: Compound concentration 1000.0 nM
[5] = biological target: Cyclin-dependent kinase 19 (Homo sapiens) (UniProt Q9BWU1); conditions: Compound concentration 1000.0 nM
[6] = tested on: Mast/stem cell growth factor receptor Kit (Homo sapiens), P10721 [L576P]; conditions: Compound concentration 1000.0 nM
[7] = biological target: Serine/threonine-protein kinase Nek11 (Homo sapiens) (UniProt Q8NG66); conditions: Compound concentration 1000.0 nM
[8] = biological target: T1, Testis-specific serine/threonine-protein kinase 3 (Homo sapiens) (UniProt Q96PN8); conditions: Compound concentration 1000.0 nM
T1 sequence (whole entry): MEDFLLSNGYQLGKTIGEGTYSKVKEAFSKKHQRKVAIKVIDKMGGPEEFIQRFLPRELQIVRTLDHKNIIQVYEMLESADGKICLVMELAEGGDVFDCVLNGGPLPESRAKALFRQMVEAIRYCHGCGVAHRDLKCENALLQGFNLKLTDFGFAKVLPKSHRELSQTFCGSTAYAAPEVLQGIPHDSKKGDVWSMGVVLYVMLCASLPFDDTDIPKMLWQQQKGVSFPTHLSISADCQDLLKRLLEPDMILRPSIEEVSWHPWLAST

[9] = biological target: SRSF protein kinase 3 (Homo sapiens) (UniProt Q9UPE1); conditions: Compound concentration 1000.0 nM
Chain of SRSF protein kinase 3 (Homo sapiens) (Q9UPE1 whole entry): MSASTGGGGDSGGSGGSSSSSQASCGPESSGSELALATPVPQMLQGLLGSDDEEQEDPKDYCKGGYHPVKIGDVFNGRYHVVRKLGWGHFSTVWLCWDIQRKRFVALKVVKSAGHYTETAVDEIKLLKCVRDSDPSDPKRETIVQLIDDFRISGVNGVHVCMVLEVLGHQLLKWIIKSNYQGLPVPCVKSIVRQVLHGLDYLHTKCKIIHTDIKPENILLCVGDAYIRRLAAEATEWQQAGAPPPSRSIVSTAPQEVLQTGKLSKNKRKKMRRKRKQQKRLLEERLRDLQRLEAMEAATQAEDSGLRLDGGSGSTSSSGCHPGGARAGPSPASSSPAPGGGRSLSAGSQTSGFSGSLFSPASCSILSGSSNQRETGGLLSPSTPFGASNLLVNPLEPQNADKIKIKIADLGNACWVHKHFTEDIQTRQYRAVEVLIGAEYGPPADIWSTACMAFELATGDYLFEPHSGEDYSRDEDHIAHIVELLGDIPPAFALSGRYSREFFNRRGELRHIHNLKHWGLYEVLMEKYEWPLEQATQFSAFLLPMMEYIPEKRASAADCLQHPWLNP

[10] = biological target: RAF proto-oncogene serine/threonine-protein kinase (Homo sapiens) (UniProt P04049); conditions: Compound concentration 1000.0 nM
Chain of RAF proto-oncogene serine/threonine-protein kinase (Homo sapiens) (P04049 whole entry): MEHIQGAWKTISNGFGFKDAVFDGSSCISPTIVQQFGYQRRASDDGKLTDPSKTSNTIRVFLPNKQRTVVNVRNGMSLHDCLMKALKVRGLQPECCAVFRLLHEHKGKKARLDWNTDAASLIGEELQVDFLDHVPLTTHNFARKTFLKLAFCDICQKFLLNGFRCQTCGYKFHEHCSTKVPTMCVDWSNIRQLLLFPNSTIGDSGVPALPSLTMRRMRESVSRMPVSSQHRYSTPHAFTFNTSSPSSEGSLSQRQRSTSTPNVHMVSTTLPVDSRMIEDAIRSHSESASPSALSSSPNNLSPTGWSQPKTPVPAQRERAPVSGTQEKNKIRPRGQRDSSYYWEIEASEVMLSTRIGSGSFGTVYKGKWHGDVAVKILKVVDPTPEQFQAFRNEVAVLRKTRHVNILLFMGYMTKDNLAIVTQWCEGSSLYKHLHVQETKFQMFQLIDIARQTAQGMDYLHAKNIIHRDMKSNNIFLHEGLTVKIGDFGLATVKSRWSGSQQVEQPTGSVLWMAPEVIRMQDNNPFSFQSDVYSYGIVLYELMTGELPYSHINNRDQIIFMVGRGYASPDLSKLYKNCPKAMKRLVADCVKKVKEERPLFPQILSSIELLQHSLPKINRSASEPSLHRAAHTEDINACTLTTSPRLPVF

[11] = tested on: Receptor-type tyrosine-protein kinase FLT3 (Homo sapiens), P36888 [N841I]; conditions: Compound concentration 1000.0 nM
[12] = biological target: Phosphatidylinositol 4,5-bisphosphate 3-kinase catalytic subunit beta isoform (Homo sapiens) (UniProt P42338); conditions: Compound concentration 1000.0 nM
[13] = tested on: Epidermal growth factor receptor (Homo sapiens), P00533 [L858R,T790M]; conditions: Compound concentration 1000.0 nM
[14] = biological target: Mitogen-activated protein kinase kinase kinase 1 (Homo sapiens) (UniProt Q13233); conditions: Compound concentration 1000.0 nM
[15] = biological target: Serine/threonine-protein kinase 10 (Homo sapiens) (UniProt O94804); conditions: Compound concentration 1000.0 nM
[16] = biological target: Serine/threonine-protein kinase PAK 5 (Homo sapiens) (UniProt Q9P286); conditions: Compound concentration 1000.0 nM
[17] = biological target: Tyrosine-protein kinase SYK (Homo sapiens) (UniProt P43405); conditions: Compound concentration 1000.0 nM
[18] = tested on: Phosphatidylinositol 4,5-bisphosphate 3-kinase catalytic subunit alpha isoform (Homo sapiens), P42336 [E545K]; conditions: Compound concentration 1000.0 nM
[19] = biological target: Dual specificity tyrosine-phosphorylation-regulated kinase 1B (Homo sapiens) (UniProt Q9Y463); conditions: Compound concentration 1000.0 nM
Chain of Dual specificity tyrosine-phosphorylation-regulated kinase 1B (Homo sapiens) (Q9Y463 whole entry, looked up): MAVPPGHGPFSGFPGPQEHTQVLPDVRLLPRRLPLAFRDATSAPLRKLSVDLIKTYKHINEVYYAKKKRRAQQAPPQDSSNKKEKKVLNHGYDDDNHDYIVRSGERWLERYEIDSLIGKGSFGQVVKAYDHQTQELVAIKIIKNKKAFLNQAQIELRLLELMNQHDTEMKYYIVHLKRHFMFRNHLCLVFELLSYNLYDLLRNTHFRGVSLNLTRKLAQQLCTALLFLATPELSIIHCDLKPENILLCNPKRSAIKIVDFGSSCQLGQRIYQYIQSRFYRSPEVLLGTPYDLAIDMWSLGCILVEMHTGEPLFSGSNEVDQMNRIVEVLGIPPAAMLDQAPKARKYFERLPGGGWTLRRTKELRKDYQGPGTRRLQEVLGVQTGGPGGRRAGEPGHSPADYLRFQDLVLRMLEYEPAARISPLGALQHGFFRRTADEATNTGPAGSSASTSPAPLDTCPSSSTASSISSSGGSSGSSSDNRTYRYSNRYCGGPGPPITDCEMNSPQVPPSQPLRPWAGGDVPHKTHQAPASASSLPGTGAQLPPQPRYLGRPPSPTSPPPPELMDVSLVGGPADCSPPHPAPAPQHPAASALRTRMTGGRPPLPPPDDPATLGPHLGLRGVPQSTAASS

[20] = biological target: Ephrin type-B receptor 6 (Homo sapiens) (UniProt O15197); conditions: Compound concentration 1000.0 nM
Chain of Ephrin type-B receptor 6 (Homo sapiens) (O15197 whole entry): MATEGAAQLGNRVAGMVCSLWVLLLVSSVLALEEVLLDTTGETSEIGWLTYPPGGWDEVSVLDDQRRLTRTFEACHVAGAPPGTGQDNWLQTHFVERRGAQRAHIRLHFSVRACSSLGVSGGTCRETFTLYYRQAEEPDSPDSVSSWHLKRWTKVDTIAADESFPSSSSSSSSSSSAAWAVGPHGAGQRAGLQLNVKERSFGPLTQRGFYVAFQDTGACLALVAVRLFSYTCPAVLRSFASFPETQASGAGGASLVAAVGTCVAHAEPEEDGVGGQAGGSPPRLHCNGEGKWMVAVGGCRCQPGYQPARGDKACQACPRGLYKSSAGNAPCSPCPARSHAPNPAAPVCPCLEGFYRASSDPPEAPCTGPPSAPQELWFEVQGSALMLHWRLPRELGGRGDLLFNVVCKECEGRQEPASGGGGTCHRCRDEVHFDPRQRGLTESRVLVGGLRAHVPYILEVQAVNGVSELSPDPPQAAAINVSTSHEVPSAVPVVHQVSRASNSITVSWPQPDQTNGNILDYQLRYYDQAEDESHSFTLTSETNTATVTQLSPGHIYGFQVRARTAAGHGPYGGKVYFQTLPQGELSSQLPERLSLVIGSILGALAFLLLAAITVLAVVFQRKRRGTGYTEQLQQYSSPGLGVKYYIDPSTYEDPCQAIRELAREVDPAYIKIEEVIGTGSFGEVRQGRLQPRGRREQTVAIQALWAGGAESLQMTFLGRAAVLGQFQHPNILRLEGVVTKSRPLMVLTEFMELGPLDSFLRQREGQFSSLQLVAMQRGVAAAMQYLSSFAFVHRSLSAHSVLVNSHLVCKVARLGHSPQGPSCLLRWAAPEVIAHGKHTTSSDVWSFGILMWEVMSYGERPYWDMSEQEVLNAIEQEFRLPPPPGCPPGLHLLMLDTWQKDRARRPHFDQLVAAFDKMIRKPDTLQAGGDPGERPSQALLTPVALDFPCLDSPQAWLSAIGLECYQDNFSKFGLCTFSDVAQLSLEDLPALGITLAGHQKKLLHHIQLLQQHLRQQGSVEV

[21] = biological target: Serine/threonine-protein kinase 33 (Homo sapiens) (UniProt Q9BYT3); conditions: Compound concentration 1000.0 nM
[22] = biological target: Serine/threonine-protein kinase SIK1 (Homo sapiens) (UniProt P57059); conditions: Compound concentration 1000.0 nM
[23] = biological target: Dual specificity mitogen-activated protein kinase kinase 5 (Homo sapiens) (UniProt Q13163); conditions: Compound concentration 1000.0 nM
Chain of Dual specificity mitogen-activated protein kinase kinase 5 (Homo sapiens) (Q13163 whole entry, the tested form may be a part): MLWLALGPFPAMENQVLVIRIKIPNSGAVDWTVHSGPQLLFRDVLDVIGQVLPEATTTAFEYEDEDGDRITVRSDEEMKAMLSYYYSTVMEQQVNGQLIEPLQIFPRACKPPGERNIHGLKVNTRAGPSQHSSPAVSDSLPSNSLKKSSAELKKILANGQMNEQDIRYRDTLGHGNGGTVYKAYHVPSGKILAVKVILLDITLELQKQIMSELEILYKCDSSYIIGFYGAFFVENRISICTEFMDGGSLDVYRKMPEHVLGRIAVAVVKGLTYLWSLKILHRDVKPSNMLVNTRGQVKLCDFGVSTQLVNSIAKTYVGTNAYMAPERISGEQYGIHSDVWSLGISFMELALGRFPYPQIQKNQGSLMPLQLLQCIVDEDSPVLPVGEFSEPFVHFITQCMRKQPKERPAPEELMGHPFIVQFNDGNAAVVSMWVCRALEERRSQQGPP

[24] = biological target: LIM domain kinase 2 (Homo sapiens) (UniProt P53671); conditions: Compound concentration 1000.0 nM
[25] = biological target: Angiopoietin-1 receptor (Homo sapiens) (UniProt Q02763); conditions: Compound concentration 1000.0 nM
[26] = biological target: Serine/threonine-protein kinase RIO1 (Homo sapiens) (UniProt Q9BRS2); conditions: Compound concentration 1000.0 nM
[27] = biological target: Serine/threonine-protein kinase TBK1 (Homo sapiens) (UniProt Q9UHD2); conditions: Compound concentration 1000.0 nM
[28] = biological target: LIM domain kinase 1 (Homo sapiens) (UniProt P53667); conditions: Compound concentration 1000.0 nM
Chain of LIM domain kinase 1 (Homo sapiens) (P53667 whole entry, looked up, the tested form may be a part): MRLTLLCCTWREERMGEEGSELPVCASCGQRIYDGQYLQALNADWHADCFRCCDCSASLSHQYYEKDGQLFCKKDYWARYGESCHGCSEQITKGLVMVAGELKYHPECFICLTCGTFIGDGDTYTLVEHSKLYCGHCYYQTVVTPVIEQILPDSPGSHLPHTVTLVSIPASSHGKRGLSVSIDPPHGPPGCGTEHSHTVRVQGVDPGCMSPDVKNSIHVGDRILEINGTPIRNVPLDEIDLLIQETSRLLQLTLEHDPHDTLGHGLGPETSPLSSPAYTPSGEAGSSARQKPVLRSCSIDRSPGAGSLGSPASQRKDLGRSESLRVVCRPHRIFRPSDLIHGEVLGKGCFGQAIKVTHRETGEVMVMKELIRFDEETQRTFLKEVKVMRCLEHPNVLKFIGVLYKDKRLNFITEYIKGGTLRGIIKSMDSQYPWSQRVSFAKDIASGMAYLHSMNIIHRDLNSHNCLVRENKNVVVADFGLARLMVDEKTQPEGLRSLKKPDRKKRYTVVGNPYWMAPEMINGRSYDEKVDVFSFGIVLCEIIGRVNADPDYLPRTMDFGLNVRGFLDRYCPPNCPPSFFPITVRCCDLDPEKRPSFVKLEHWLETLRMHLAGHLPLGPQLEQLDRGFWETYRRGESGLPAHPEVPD

[29] = biological target: T2, 5-hydroxytryptamine receptor 2C (Homo sapiens) (UniProt P28335); conditions: Compound concentration 10.0 uM
T2 sequence (whole entry): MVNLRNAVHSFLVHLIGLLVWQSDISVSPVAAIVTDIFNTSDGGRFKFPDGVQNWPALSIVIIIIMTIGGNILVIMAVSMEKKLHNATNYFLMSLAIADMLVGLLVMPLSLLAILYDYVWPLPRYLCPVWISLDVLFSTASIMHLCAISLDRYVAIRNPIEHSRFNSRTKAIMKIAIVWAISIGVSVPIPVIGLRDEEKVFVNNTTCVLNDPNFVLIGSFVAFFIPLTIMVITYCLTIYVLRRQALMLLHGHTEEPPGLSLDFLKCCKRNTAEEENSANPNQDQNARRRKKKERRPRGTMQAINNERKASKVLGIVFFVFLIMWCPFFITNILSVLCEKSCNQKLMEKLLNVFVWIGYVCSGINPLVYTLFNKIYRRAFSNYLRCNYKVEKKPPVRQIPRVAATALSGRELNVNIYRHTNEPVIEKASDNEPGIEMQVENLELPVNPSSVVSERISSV

[30] = biological target: Fibroblast growth factor receptor 1 (Homo sapiens) (UniProt P11362); conditions: Compound concentration 1000.0 nM
[31] = biological target: Protein kinase C eta type (Homo sapiens) (UniProt P24723); conditions: Compound concentration 1000.0 nM
[32] = biological target: Calcium/calmodulin-dependent protein kinase type 1 (Homo sapiens) (UniProt Q14012); conditions: Compound concentration 1000.0 nM
[33] = biological target: MAP kinase-interacting serine/threonine-protein kinase 2 (Homo sapiens) (UniProt Q9HBH9); conditions: Compound concentration 1000.0 nM
Chain of MAP kinase-interacting serine/threonine-protein kinase 2 (Homo sapiens) (Q9HBH9 whole entry, looked up): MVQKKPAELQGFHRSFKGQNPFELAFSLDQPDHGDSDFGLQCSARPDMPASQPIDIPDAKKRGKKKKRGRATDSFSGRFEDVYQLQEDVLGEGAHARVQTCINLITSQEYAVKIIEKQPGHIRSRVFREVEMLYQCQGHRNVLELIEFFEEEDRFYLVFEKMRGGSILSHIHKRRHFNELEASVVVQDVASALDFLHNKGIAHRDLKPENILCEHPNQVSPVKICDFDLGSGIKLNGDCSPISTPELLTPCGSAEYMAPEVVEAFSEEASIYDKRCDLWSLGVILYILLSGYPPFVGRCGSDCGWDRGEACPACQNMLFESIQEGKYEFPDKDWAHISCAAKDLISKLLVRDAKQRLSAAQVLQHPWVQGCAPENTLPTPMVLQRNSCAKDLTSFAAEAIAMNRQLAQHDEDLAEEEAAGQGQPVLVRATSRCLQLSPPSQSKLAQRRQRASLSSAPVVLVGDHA

[34] = biological target: Ephrin type-A receptor 6 (Homo sapiens) (UniProt Q9UF33); conditions: Compound concentration 1000.0 nM
[35] = biological target: Dual specificity testis-specific protein kinase 1 (Homo sapiens) (UniProt Q15569); conditions: Compound concentration 1000.0 nM

Chain of Bone morphogenetic protein receptor type-1B (Homo sapiens) (O00238 whole entry): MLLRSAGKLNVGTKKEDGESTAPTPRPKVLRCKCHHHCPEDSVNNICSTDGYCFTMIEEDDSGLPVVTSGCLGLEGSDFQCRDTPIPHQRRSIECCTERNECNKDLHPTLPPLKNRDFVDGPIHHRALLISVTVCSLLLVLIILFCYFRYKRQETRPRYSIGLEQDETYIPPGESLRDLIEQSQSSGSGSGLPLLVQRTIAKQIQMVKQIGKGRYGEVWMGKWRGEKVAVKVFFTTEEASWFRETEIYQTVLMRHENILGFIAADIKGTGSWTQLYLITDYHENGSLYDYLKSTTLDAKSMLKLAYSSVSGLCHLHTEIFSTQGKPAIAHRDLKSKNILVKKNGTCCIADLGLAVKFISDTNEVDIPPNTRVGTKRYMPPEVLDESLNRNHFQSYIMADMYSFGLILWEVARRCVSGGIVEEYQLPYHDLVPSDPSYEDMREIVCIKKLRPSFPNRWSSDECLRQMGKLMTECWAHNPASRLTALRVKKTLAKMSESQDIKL

CN(C)C(=O)Cn1cc(-c2nc(C3(c4ccc(-c5cnc(N)nc5)cc4)CC3)no2)cn1 [BI 0153]
residual activity [1]: 41% | residual activity [2]: 84% | residual activity [3]: 99% | residual activity [4]: 96% | residual activity [5]: 93% | residual activity [6]: 84% | residual activity [7]: 90% | residual activity [8]: 97% | residual activity [9]: 100% | residual activity [10]: 100% | residual activity [11]: 100% | residual activity [12]: 96% | residual activity [13]: 97% | residual activity [14]: 77% | residual activity [15]: 100% | residual activity [16]: 88% | residual activity [17]: 77% | residual activity [18]: 85% | residual activity [19]: 66% | residual activity [20]: 93% | residual activity [21]: 99% | residual activity [22]: 86% | residual activity [23]: 72% | residual activity [24]: 85% | residual activity [25]: 88% | residual activity [26]: 100% | residual activity [27]: 87% | residual activity [28]: 100% | inhibition [29]: 9.74% | residual activity [30]: 72% | residual activity [31]: 91% | residual activity [32]: 100% | residual activity [33]: 94% | residual activity [34]: 99% | residual activity [35]: 94%

CN(C)C(=O)Cn1cc(-c2nc([C@@](C)(c3ccc(-c4cnc(N)nc4)cc3)C3CC3)no2)cn1 [BI 665915]
residual activity [1]: 100% | residual activity [2]: 99% | residual activity [3]: 76% | residual activity [4]: 89% | residual activity [5]: 100% | residual activity [6]: 63% | residual activity [7]: 100% | residual activity [8]: 68% | residual activity [9]: 85% | residual activity [10]: 100% | residual activity [11]: 83% | residual activity [12]: 100% | residual activity [13]: 93% | residual activity [14]: 90% | residual activity [15]: 89% | residual activity [16]: 100% | residual activity [17]: 73% | residual activity [18]: 81% | residual activity [19]: 98% | residual activity [20]: 76% | residual activity [21]: 100% | residual activity [22]: 52% | residual activity [23]: 62% | residual activity [24]: 85% | residual activity [25]: 100% | residual activity [26]: 100% | residual activity [27]: 85% | residual activity [28]: 81% | inhibition [29]: 0.496% | residual activity [30]: 95% | residual activity [31]: 100% | residual activity [32]: 100% | residual activity [33]: 88% | residual activity [34]: 100% | residual activity [35]: 90%
